Source: ChEMBL document CHEMBL5634208, “Design and synthesis of Meldrum's acid based 7-azaindole anchored 1,2,3-triazole hybrids as anticancer agents” (RSC Med Chem, 2024)
The source made the active and inactive calls. The rule behind the calls is not given here.

Legend:
K562 [1] = experiment: Anticancer activity against human K562 cells assessed as inhibition of cell growth measured after 48 hrs by MTT assay; format: functional, cell-based; settings: K562, 48 h
HepG2 = experiment: Anticancer activity against human HepG2 cells assessed as inhibition of cell growth measured after 48 hrs by MTT assay; format: functional, cell-based; settings: HepG2, 48 h
DU-145 = experiment: Anticancer activity against human DU-145 cells assessed as inhibition of cell growth measured after 48 hrs by MTT assay; format: functional, cell-based; settings: DU-145, 48 h
HeLa [2] = experiment: Anticancer activity against human HeLa cells assessed as inhibition of cell growth measured after 48 hrs by MTT assay; format: functional, cell-based
[3] = Cytotoxicity against HEK293 cells assessed as inhibition of cell growth measured after 48 hrs by MTT assay; format: toxicity, cell-based; settings: human
MCF7 = experiment: Anticancer activity against human MCF7 cells assessed as inhibition of cell growth measured after 48 hrs by MTT assay; format: functional, cell-based; settings: MCF7, 48 h
HeLa [4] = experiment: Induction of apoptosis in human HeLa cells assessed as viable cells at 1 uM measured after 48 hrs by annexin V-FITC based propidium iodide dual staining based flow cytometry analysis (reference value: 81.7%); format: functional; settings: read-out: Activity
HeLa [5] = experiment: Induction of cell cycle arrest in human HeLa cells assessed as accumulation of cells at G2/M phase at 1 uM measured after 48 hrs by propidium iodide staining based flow cytometry analysis (reference value: 6.9%); format: functional
HeLa [6] = experiment: Induction of apoptosis in human HeLa cells assessed as early apoptotic cells at 5 uM measured after 48 hrs by annexin V-FITC based propidium iodide dual staining based flow cytometry analysis (reference value: 13.8%); format: functional
HeLa [7] = experiment: Induction of apoptosis in human HeLa cells assessed as late apoptotic cells at 1 uM measured after 48 hrs by annexin V-FITC based propidium iodide dual staining based flow cytometry analysis (reference value: 3.5%); format: functional
HeLa [8] = experiment: Induction of cell cycle arrest in human HeLa cells assessed as accumulation of cells at subG1 phase at 5 uM measured after 48 hrs by propidium iodide staining based flow cytometry analysis (reference value: 6.8%); format: functional
HeLa [9] = experiment: Induction of apoptosis in human HeLa cells assessed as necrotic cells at 5 uM measured after 48 hrs by annexin V-FITC based propidium iodide dual staining based flow cytometry analysis (reference value: 1.0%); format: functional
K562 [10] = experiment: Downregulation of EGFR expression in human K562 cells measured after 48 hrs by RT-qPCR analysis; format: functional, cell-based; settings: dose 1-5 µM
HeLa [11] = experiment: Induction of apoptosis in human HeLa cells assessed as early apoptotic cells at 1 uM measured after 48 hrs by annexin V-FITC based propidium iodide dual staining based flow cytometry analysis (reference value: 13.8%); format: functional
K562 [12] = experiment: Downregulation of MCL-1 expression in human K562 cells measured after 48 hrs by RT-qPCR analysis; format: functional, cell-based; settings: dose 1-5 µM
HeLa [13] = experiment: Induction of cell cycle arrest in human HeLa cells assessed as accumulation of cells at G0/G1 phase at 1 uM measured after 48 hrs by propidium iodide staining based flow cytometry analysis (reference value: 85.6%); format: functional
HeLa [14] = experiment: Induction of cell cycle arrest in human HeLa cells assessed as accumulation of cells at G2/M phase at 5 uM measured after 48 hrs by propidium iodide staining based flow cytometry analysis (reference value: 6.9%); format: functional
HeLa [15] = experiment: Induction of cell cycle arrest in human HeLa cells assessed as accumulation of cells at S phase at 5 uM measured after 48 hrs by propidium iodide staining based flow cytometry analysis (reference value: 1.0%); format: functional
HeLa [16] = experiment: Induction of apoptosis in human HeLa cells assessed as late apoptotic cells at 5 uM measured after 48 hrs by annexin V-FITC based propidium iodide dual staining based flow cytometry analysis (reference value: 3.5%); format: functional
HeLa [17] = experiment: Induction of cell cycle arrest in human HeLa cells assessed as accumulation of cells at G0/G1 phase at 5 uM measured after 48 hrs by propidium iodide staining based flow cytometry analysis (reference value: 85.6%); format: functional
HeLa [18] = experiment: Induction of cell cycle arrest in human HeLa cells assessed as accumulation of cells at S phase at 1 uM measured after 48 hrs by propidium iodide staining based flow cytometry analysis (reference value: 1.0%); format: functional
HeLa [19] = experiment: Induction of apoptosis in human HeLa cells assessed as necrotic cells at 1 uM measured after 48 hrs by annexin V-FITC based propidium iodide dual staining based flow cytometry analysis (reference value: 1.0%); format: functional
HeLa [20] = experiment: Induction of cell cycle arrest in human HeLa cells assessed as accumulation of cells at subG1 phase at 1 uM measured after 48 hrs by propidium iodide staining based flow cytometry analysis (reference value: 6.8%); format: functional
HeLa [21] = experiment: Induction of apoptosis in human HeLa cells assessed as nuclear condensation at 1 to 5 uM measured after 48 hrs by Hoechst staining based fluorescent microscopic analysis; format: functional, cell-based; settings: dose 1-5 µM
HeLa [22] = experiment: Induction of apoptosis in human HeLa cells assessed as viable cells at 5 uM measured after 48 hrs by annexin V-FITC based propidium iodide dual staining based flow cytometry analysis (reference value: 81.7%); format: functional; settings: read-out: Activity
K562 [23] = experiment: Downregulation of MCL-1 expression in human K562 cells at 1 to 5 uM measured after 48 hrs by RT-qPCR analysis; format: functional, cell-based; settings: dose 1-5 µM
K562 [24] = experiment: Downregulation of EGFR expression in human K562 cells at 1 to 5 uM measured after 48 hrs by RT-qPCR analysis; format: functional, cell-based; settings: dose 1-5 µM

| SMILES | IC50 (K562 [1]) | IC50 (HepG2) | IC50 (DU-145) | IC50 (HeLa [2]) | IC50 at 48 h [3] | IC50 (MCF7) | also measured |
| --- | --- | --- | --- | --- | --- | --- | --- |
| CC1(C)OC(=O)C(=Cc2cn(Cc3cn(-c4ccc(Br)cc4)nn3)c3ncccc23)C(=O)O1 | 12.5 µM | 29.1 µM | 15.4 µM | 6.87 µM | 93.9 µM | 7.32 µM | – |
| Cc1ccc(-n2cc(Cn3cc(C=C4C(=O)OC(C)(C)OC4=O)c4cccnc43)nn2)cc1 | 6.03 µM | 9.97 µM | 12.4 µM | 4.44 µM | > 100 µM | 6.67 µM | viability at 1 µM (HeLa [4]): 79.2%; Activity (HeLa [5]): 20.7%; Activity (HeLa [6]): 39.7%; Activity (HeLa [7]): 2.5%; Activity (HeLa [8]): 3.1%; Activity (HeLa [9]): 0.3%; Activity (K562 [10]): Dose-Dependent Effect; Activity (HeLa [11]): 16.8%; Activity (K562 [12]): Dose-Dependent Effect; Activity (HeLa [13]): 72.2%; Activity (HeLa [14]): 54.4%; Activity (HeLa [15]): 2.7%; Activity (HeLa [16]): 4.6%; Activity (HeLa [17]): 39.1%; Activity (HeLa [18]): 2.1%; Activity (HeLa [19]): 1.5%; Activity (HeLa [20]): 6%; Activity (HeLa [21]): Active; viability at 5 µM (HeLa [22]): 55.4% |
| COc1cc(-n2cc(Cn3cc(C=C4C(=O)OC(C)(C)OC4=O)c4cccnc43)nn2)cc(OC)c1OC | 14.3 µM | 20.1 µM | 18.8 µM | 9.52 µM | 76.6 µM | 13.1 µM | – |
| CC1(C)OC(=O)C(=Cc2cn(Cc3cn(-c4ccc(I)cc4)nn3)c3ncccc23)C(=O)O1 | 16.8 µM | 27.9 µM | 32.1 µM | 16.2 µM | > 100 µM | 15.2 µM | – |
| CC1(C)OC(=O)C(=Cc2cn(Cc3cn(-c4ccc(Cl)cc4)nn3)c3ncccc23)C(=O)O1 | 20.5 µM | 24.5 µM | 22.6 µM | 16.7 µM | 97.3 µM | 22.9 µM | – |
| CC1(C)OC(=O)C(=Cc2cn(Cc3cn(-c4cc(Cl)cc(Cl)c4)nn3)c3ncccc23)C(=O)O1 | 26.8 µM | 49.4 µM | 37.8 µM | 25 µM | > 100 µM | 25.4 µM | – |
| COc1cc(OC)cc(-n2cc(Cn3cc(C=C4C(=O)OC(C)(C)OC4=O)c4cccnc43)nn2)c1 | 14.5 µM | 28.4 µM | 14.7 µM | 9.68 µM | 81.7 µM | 20.2 µM | – |
| COc1ccc(-n2cc(Cn3cc(C=C4C(=O)OC(C)(C)OC4=O)c4cccnc43)nn2)cc1 | 16.4 µM | 42.1 µM | 33.8 µM | 15.9 µM | 99.7 µM | 36.1 µM | – |
| CC1(C)OC(=O)C(=Cc2cn(Cc3cn(-c4ccccc4)nn3)c3ncccc23)C(=O)O1 | 20.2 µM | 29.2 µM | 49.3 µM | 21.3 µM | > 100 µM | 28.3 µM | – |
| CC1(C)OC(=O)C(=Cc2cn(Cc3cn(-c4ccccc4Cl)nn3)c3ncccc23)C(=O)O1 | 16.1 µM | 21.9 µM | 15.4 µM | 12.8 µM | > 100 µM | 18 µM | – |
| CC1(C)OC(=O)C(=Cc2cn(Cc3cn(-c4cccc(Cl)c4)nn3)c3ncccc23)C(=O)O1 | 17.2 µM | 26.6 µM | 28.4 µM | 12.8 µM | > 100 µM | 20.1 µM | – |
| CC1(C)OC(=O)C(=Cc2cn(Cc3cn(-c4ccc(F)cc4)nn3)c3ncccc23)C(=O)O1 | 19.1 µM | 37 µM | 22.8 µM | 18.9 µM | > 100 µM | 20.8 µM | – |
| CC1(C)OC(=O)C(=Cc2cn(Cc3cn(-c4ccc([N+](=O)[O-])cc4)nn3)c3ncccc23)C(=O)O1 | 21.4 µM | 30.1 µM | 27.7 µM | 19.4 µM | > 100 µM | 25.8 µM | – |
| CC1(C)OC(=O)C(=Cc2cn(Cc3cn(-c4ccc(Br)cc4F)nn3)c3ncccc23)C(=O)O1 | 19.1 µM | 27.8 µM | 22.6 µM | 10.3 µM | 90.8 µM | 19.9 µM | – |
| COc1cccc2c1C(=O)c1c(O)c3c(c(O)c1C2=O)C[C@@](O)(C(=O)CO)C[C@@H]3O[C@H]1C[C@H](N)[C@H](O)[C@H](C)O1 [DOXORUBICIN] | 1.23 µM | – | – | – | – | 1.48 µM | viability at 1 µM (HeLa [4]): 75.6%; Activity (HeLa [5]): 34.2%; Activity (HeLa [6]): 30.3%; Activity (HeLa [7]): 3.1%; Activity (HeLa [8]): 3.7%; Activity (HeLa [9]): 0.5%; Activity (HeLa [11]): 19.6%; Activity (K562 [23]): Active; Activity (HeLa [13]): 60%; Activity (HeLa [14]): 52.7%; Activity (HeLa [15]): 2.6%; Activity (K562 [24]): Active; Activity (HeLa [16]): 4.8%; Activity (HeLa [17]): 40.3%; Activity (HeLa [18]): 3%; Activity (HeLa [19]): 1.7%; Activity (HeLa [20]): 4.2%; viability at 5 µM (HeLa [22]): 64.4% |
| CC1(C)OC(=O)C(=Cc2cn(Cc3cn(-c4ccc(Cl)c(Cl)c4)nn3)c3ncccc23)C(=O)O1 | 20.2 µM | 26.1 µM | 33.8 µM | 16.6 µM | > 100 µM | 24.2 µM | – |
